Columns and labels:
Conditions in all cases: 120 h, read-out: percent control or mortality rate
[1] = tested on: corn earworm (Helicoverpa zea); assay: 128 well diet tray insecticidal bioassay, corn earworm
[2] = tested on: beet armyworm (Spodoptera exigua); assay: 128 well diet tray insecticidal bioassay, beet armyworm
[3] = tested on: cabbage looper (Trichoplusia ni (Huebner)); assay: 128 well diet tray insecticidal bioassay, cabbage looper

In the case of O=C(Nc1nc(OCC(F)(F)F)cc(OCC(F)(F)F)n1)Nc1ccc(C(F)(F)F)s1 [Compound 1, 3-(4,6-bis(2,2,2-trifluoroethoxy)pyrimidin-2-yl)-1-(5-(trifluoromethyl)thiophen-2-yl)urea], the mortality at 50 µg/cm2 [1] is reported as 80 to 100% and the mortality at 50 µg/cm2 [2] is reported as < 80%.
In the case of CN(C(=O)Nc1nc(OCC(F)(F)F)cc(OCC(F)(F)F)n1)c1ccc(C(F)(F)F)s1 [Compound 2, 3-(4,6-bis(2,2,2-trifluoroethoxy)pyrimidin-2-yl)-1-methyl-1-(5-(trifluoromethyl)thiophen-2-yl)urea], the mortality at 50 µg/cm2 [1] is reported as 80 to 100% and the mortality at 50 µg/cm2 [2] is reported as 80 to 100%.
Compound COCN(C(=O)Nc1ccc(C(F)(F)F)s1)c1nc(OCC(F)(F)F)cc(OCC(F)(F)F)n1 [Compound 4, 3-(methoxymethyl)-3-(4,6-bis(2,2,2-trifluoroethoxy)pyrimidin-2-yl)-1-(5-(trifluoromethyl)thiophen-2-yl)urea] has a mortality at 50 µg/cm2 [1] of 80 to 100% and a mortality at 50 µg/cm2 [2] of 80 to 100%.
Compound CC(=O)OCN(C(=O)Nc1ccc(C(F)(F)F)s1)c1nc(OCC(F)(F)F)cc(OCC(F)(F)F)n1 [Compound 5] has a mortality at 50 µg/cm2 [1] of 80 to 100% and a mortality at 50 µg/cm2 [2] of 80 to 100%.
In the case of COCN(C(=O)N(C)c1ccc(C(F)(F)F)s1)c1nc(OCC(F)(F)F)cc(OCC(F)(F)F)n1 [Compound 7], the mortality at 50 µg/cm2 [1] is reported as 80 to 100% and the mortality at 50 µg/cm2 [2] is reported as 80 to 100%.
CC(=O)OCN(C(=O)N(C)c1ccc(C(F)(F)F)s1)c1nc(OCC(F)(F)F)cc(OCC(F)(F)F)n1 [Compound 8] showed a mortality at 50 µg/cm2 [1] of 80 to 100% and a mortality at 50 µg/cm2 [2] of 80 to 100%.
Work on CN(C(=O)N(COCc1ccccc1)c1nc(OCC(F)(F)F)cc(OCC(F)(F)F)n1)c1ccc(C(F)(F)F)s1 [Compound 9] yielded a mortality at 50 µg/cm2 [1] of 80 to 100% and a mortality at 50 µg/cm2 [2] of 80 to 100%.
COCN(C(=O)N(COCc1ccccc1)c1nc(OCC(F)(F)F)cc(OCC(F)(F)F)n1)c1ccc(C(F)(F)F)s1 [Compound 10, 3-(benzyloxymethyl)-3-(4,6-bis(2,2,2-trifluoroethoxy)pyrimidin-2-yl)-1-(methoxymethyl)-1-(5-(trifluoromethyl)thiophen-2-yl)urea] was tested, and the mortality at 50 µg/cm2 [1] was 80 to 100% and the mortality at 50 µg/cm2 [2] was 80 to 100%.
Work on O=C(Nc1nc(OCC(F)(F)F)c(F)c(OCC(F)(F)F)n1)Nc1ccc(C(F)(F)F)s1 [Compound 12] yielded a mortality at 50 µg/cm2 [1] of 80 to 100% and a mortality at 50 µg/cm2 [2] of 80 to 100%.
For CN(C(=O)Nc1nc(OCC(F)(F)F)c(F)c(OCC(F)(F)F)n1)c1ccc(C(F)(F)F)s1 [Compound 13], the mortality at 50 µg/cm2 [1] was 80 to 100% and the mortality at 50 µg/cm2 [2] was 80 to 100%.
For COCN(C(=O)Nc1ccc(C(F)(F)F)s1)c1nc(OCC(F)(F)F)c(F)c(OCC(F)(F)F)n1 [Compound 15], the mortality at 50 µg/cm2 [2] was 80 to 100%.
In the case of CC(=O)OCN(C(=O)N(C)c1ccc(C(F)(F)F)s1)c1nc(OCC(F)(F)F)c(F)c(OCC(F)(F)F)n1 [Compound 19], the mortality at 50 µg/cm2 [1] is reported as 80 to 100% and the mortality at 50 µg/cm2 [2] is reported as 80 to 100%.
With COc1c(Cl)csc1NC(=O)Nc1nc(OCC(F)(F)F)cc(OCC(F)(F)F)n1 [Compound 25] the mortality at 50 µg/cm2 [3] was 80 to 100% and the mortality at 50 µg/cm2 [2] was 80 to 100%.
Work on CN(C(=O)Nc1nc(OCC(F)(F)F)cc(OCC(F)(F)F)n1)c1cc(-c2ccc(Cl)cc2)cs1 [Compound 26] yielded a mortality at 50 µg/cm2 [3] of 80 to 100% and a mortality at 50 µg/cm2 [2] of 80 to 100%.
With CN(C(=O)Nc1nc(OCC(F)(F)F)cc(OCC(F)(F)F)n1)c1sccc1Cl [Compound 28] the mortality at 50 µg/cm2 [2] was < 80%.
With Cc1ccsc1N(C)C(=O)Nc1nc(OCC(F)(F)F)cc(OCC(F)(F)F)n1 [Compound 31] the mortality at 50 µg/cm2 [3] was < 80%.
For O=C(Nc1nc(OCC(F)(F)F)cc(OCC(F)(F)F)n1)Nc1sccc1Cl [Compound 32], the mortality at 50 µg/cm2 [2] was 80 to 100%.
Cc1csc(N(C)C(=O)Nc2nc(OCC(F)(F)F)cc(OCC(F)(F)F)n2)c1 [Compound 34] was tested, and the mortality at 50 µg/cm2 [3] was 80 to 100%.
With COc1c(Cl)csc1N(C)C(=O)Nc1nc(OCC(F)(F)F)cc(OCC(F)(F)F)n1 [Compound 35] the mortality at 50 µg/cm2 [3] was < 80%.
For COc1ccsc1N(C)C(=O)Nc1nc(OCC(F)(F)F)cc(OCC(F)(F)F)n1 [Compound 36], the mortality at 50 µg/cm2 [3] was < 80%.
Cc1ccsc1NC(=O)Nc1nc(OCC(F)(F)F)cc(OCC(F)(F)F)n1 [Compound 37] was tested, and the mortality at 50 µg/cm2 [3] was < 80% and the mortality at 50 µg/cm2 [2] was 80 to 100%.
Work on CN(C(=O)Nc1nc(OCC(F)(F)F)cc(OCC(F)(F)F)n1)c1cc(C#N)cs1 [Compound 38] yielded a mortality at 50 µg/cm2 [3] of 80 to 100%.
Cc1ccc(N(C)C(=O)Nc2nc(OCC(F)(F)F)cc(OCC(F)(F)F)n2)s1 [Compound 39] showed a mortality at 50 µg/cm2 [3] of 80 to 100%.
Compound O=C(Nc1nc(OCC(F)(F)F)cc(OCC(F)(F)F)n1)Nc1sc(Cl)c(Cl)c1Cl [Compound 44] has a mortality at 50 µg/cm2 [3] of 80 to 100% and a mortality at 50 µg/cm2 [2] of 80 to 100%.
In the case of O=C(Nc1nc(OCC(F)(F)F)cc(OCC(F)(F)F)n1)Nc1sccc1Br [Compound 45], the mortality at 50 µg/cm2 [2] is reported as < 80%.

— US9227957B2, “Pesticidal pyrimidine compounds” (Dow AgroSciences, LLC, priority 2012, dated 2016)
